“And” between values parts separate entries of the source, which are not always exact repeats. Equal values may be shown once. Read-outs that look alike come from different tables or passages of the source.
Columns and labels:
T. cruzi = details: read-out: IC50, trypanocidal activity, cited from earlier work
L. mexicana = tested on: L. mexicana; design: method as in doi:10.2174/1573407213666170405121810; details: pyridine compound of Figure 1A; read-out: IC50, leishmanicidal activity; cited from earlier work
Leishmania = tested on: Leishmania; design: method as in doi:10.1016/j.molstruc.2018.11.017; details: natural product scaffold of Figure 1B; read-out: IC50, leishmanicidal activity; cited from earlier work
[1] = tested on: murine macrophage J774.2 cell line; experiment: Cytotoxicity assay, MTT method, 48 h; type: cell-based; details: read-out: Macrophage J774.2 CC50 (µM ± SD)
Protocol: (§1) A cytotoxicity assay was performed using the murine macrophage J774.2 cell line, which was recloned from the original ascites and solid tumor J774.1 (according to the manufacturer). The cells were cultured in RPMI medium supplemented with 10% SBF, 100 U […] penicillin, 100 µg/mL streptomycin, and glutamine (2 mM), and 5% CO2 atmosphere. The medium was changed every 2–3 days. Macrophages were used at 1 × 10^6 cells and were incubated with compounds at different concentrations (0.75–100 µM, respectively) at 37 °C for 48 h in a 5% CO2 atmosphere. DMSO was used as a negative control (0.2%). The metabolic activity of macrophages was determined by the MTT method. The percentage of cell viability was calculated, and the half-maximal cytotoxic concentration (CC50) was determined using probit analysis. Three independent assays were conducted in triplicate.

[2] = tested on: L. mexicana (MNYC/BZ/62/M379) (M379) promastigotes; experiment: In vitro leishmanicidal activity, MTT method, 48 h; type: cell-based, Leishmania mexicana; details: for Selectivity Index L. mexicana M379: CC50 (J774.2)/IC50; for IC50 / Leishmanicidal activity class in words, M379 strain: promastigotes, M379 strain; for IC50: 48 h, read-out: L. mexicana IC50 (µM ± SD) M379; for Leishmanicidal activity class in words, M379 strain: classes by IC50
Protocol: (§2) To determine the leishmanicidal activity of pyridine-2,5-dicarboxylates, the parasites, in their logarithmic growth phase (5 × 10^5 parasites/mL), were cultured in 96-well microliter plates with the corresponding pyridine-2,5-dicarboxylate compound at different concentrations (0.78–100 µM). Compounds were dissolved in DMSO in a final volume of 200 µL for 48 h at 26 °C. Parasites treated with DMSO (0.2%) were used as a negative control, while treatments with Glucantime and Amphotericin B, at the same concentrations, were used as positive controls. The metabolic activity of the cells was determined using the 3-(4,5-Dimethylthiazol-2-yl)-2,5-diphenyltetrazolium bromide (MTT) method. IC50 was determined using probit analysis. Three independent experiments were performed in triplicate, and the data were analyzed for statistical significance (p < 0.05) using Biostat 5.3.0 software.

[3] = tested on: L. mexicana (MHOM/MX/2017/UABJO17FCQEPS) (FCQEPS) promastigotes; experiment: In vitro leishmanicidal activity, MTT method, 48 h; type: cell-based, Leishmania mexicana; details: for Selectivity Index L. mexicana FCQEPS: CC50 (J774.2)/IC50; for IC50: promastigotes, FCQEPS strain, 48 h, read-out: L. mexicana IC50 (µM ± SD) FCQEPS
Protocol: as §2

[4] = tested on: T. cruzi (NINOA) epimastigotes; experiment: In vitro trypanocidal activity, Alamar Blue assay, 48 h; type: cell-based, Trypanosoma cruzi; details: for IC50: Trypanosoma cruzi, 48 h, read-out: T. cruzi IC50 (µM ± SD) NINOA
Protocol: (§3) Both strains were maintained in liver infusion tryptose (LIT) medium supplemented with 10% FBS and 0.1% penicillin-streptomycin. They were preserved by transferring 1 × 10^6 parasites/mL into a new culture medium every week. […] The metabolic activity was determined by the Alamar Blue assay. Briefly, after the incubation period, 20 µL of 2.5 mM resazurin solution was added to each well and incubated for 3 h. Three independent experiments were performed in triplicate. The half-maximum inhibitory concentration (IC50) was determined using probit analysis.

[5] = tested on: T. cruzi (A1) epimastigotes; experiment: as above; type: cell-based, Trypanosoma cruzi; details: for Selectivity Index T. cruzi A1: CC50 (J774.2)/IC50; for IC50: Trypanosoma cruzi, 48 h, epimastigotes, A1 strain, read-out: T. cruzi IC50 (µM ± SD) A1
Protocol: as §3

[6] = Cytotoxicity assay, MTT method, 48 h; type: cell-based, murine; details: mouse, J774.2 macrophage cells, J774.2 cell line, read-out: Macrophage J774.2 CC50 (µM ± SD)
Protocol: as §1

Q: Which IC50 (T. cruzi; natural product scaffold of Figure 1B) does the source give for `CC1=CC[C@@H](C(C)(C)Nc2nnc(-c3ccc(C)cc3)s2)CC1` [TDZ 2] here?
A: Its IC50 is 1.3 µM.

Q: With `Cc1ccc(O)c(C(=O)c2cnc3[nH]nc(C)c3c2)c1` [Compound 7] as the molecule, how does the IC50 (L. mexicana) read?
A: Its IC50 is 31 µM.

Q: Which IC50 (Leishmania) does the source give for `CC1=CC[C@H](C(C)(C)NC(=S)N/N=C/c2ccc([N+](=O)[O-])cc2)CC1` [Compound 8d] here?
A: Its IC50 is 2.4 µM.

Q: Which CC50 [1] does the source give for `CNC[C@H](O)[C@@H](O)[C@H](O)[C@H](O)CO.[O]=[Sb](=[O])[OH]` [Glc, Glucantime, reference compound] here?
A: Its CC50 is 273 µM.

Q: What about the “Selectivity Index L. mexicana M379” value [2] of the same molecule?
A: Its value is 2.0.

Q: What about the “Selectivity Index L. mexicana M379” value ([2]; listed as Glucantime) of the same molecule?
A: Its value is 2.03.

Q: And the IC50 ([2]; listed as Glucantime)?
A: The IC50 was 134 µM and > 125 µM.

Q: What about the IC50 [2] of the same molecule?
A: Its IC50 is 134 ± 4.32 µM.

Q: And the “Selectivity Index L. mexicana FCQEPS” value [3]?
A: The value was 2.2.

Q: And the “Selectivity Index L. mexicana FCQEPS” value ([3]; listed as Glucantime)?
A: Its value is 2.18 and 2.

Q: And the IC50 ([3]; listed as Glucantime)?
A: The IC50 was greater than 125 µM.

Q: What about the IC50 [3] of the same molecule?
A: The IC50 was 125 ± 11.6 µM.

Q: With `Clc1ccc(-c2csc(N/N=C/c3ccccn3)n2)cc1Cl` [Compound 11] as the molecule, how does the IC50 (T. cruzi; pyridine compound of Figure 1A) read?
A: Its IC50 is 4 µM.

Q: Which IC50 ([4]; epimastigotes, NINOA strain) does the source give for `CCOC(=O)c1nc(C)c(C(=O)OCCC(C)CCC=C(C)C)cc1-c1ccc(C)cc1` (centres unmarked) [Compound 11b] here?
A: The IC50 was greater than 200 µM.

Q: What about the “Trypanocidal activity class in words, NINOA strain” value ([4]; epimastigotes, NINOA strain, classes by IC50) of the same molecule?
A: The value was “inactive”.

Q: And the “Selectivity Index T. cruzi A1” value [5]?
A: Its value is 3.3.

Q: What about the IC50 [5] of the same molecule?
A: Its IC50 is 51.6 ± 0.59 µM.

Q: And the CC50 [1]?
A: Its CC50 is 169.8 ± 1.3 µM.

Q: What about the CC50 at 48 h [6] of the same molecule?
A: The CC50 at 48 h was 169 µM.

Q: What about the IC50 ([2]; Leishmania mexicana) of the same molecule?
A: Its IC50 is greater than 200 µM.

Q: What about the “Leishmanicidal activity class in words, M379 strain” value [2] of the same molecule?
A: Its value is “did not have antiparasitic activity”.

Q: And the IC50 ([3]; Leishmania mexicana)?
A: Its IC50 is greater than 200 µM.

Q: Which results are given for `CCOC(=O)c1nc(C)c(C(=O)OCc2ccccc2)cc1-c1ccc(F)cc1` [Compound 4c]?
A: Selectivity Index T. cruzi NINOA ([4]; CC50 (J774.2)/IC50): >1; IC50 ([4]; epimastigotes, NINOA strain): > 200 µM; Selectivity Index T. cruzi A1 [5]: >1; IC50 [5]: > 200 µM; CC50 at 48 h [6]: > 200 µM; Selectivity Index L. mexicana M379 [2]: >1; IC50 ([2]; Leishmania mexicana): > 200 µM; Leishmanicidal activity class in words, M379 strain [2]: inactive; Selectivity Index L. mexicana FCQEPS [3]: >1; IC50 ([3]; Leishmania mexicana): > 200 µM
